Measured values reported in US11820994B2, “Methods of inducing apomictic or sexual reproduction” (priority 2018, dated 2023).

Tests used:
[1] = test system: B. cf. gunnisoniana ovules; experiment: Pistil culture with BR biosynthesis inhibitor BRZ, H2O2, or both; assay type: cell-based; conditions: for shift from apomeiosis (dyad formation) to meiosis (tetrad formation) vs controls: BRZ alone (1.0 μmol), H2O2 alone (500 μmol), or combined
Procedure: Pistils were cultured at the 2-IV stage.
Pistils were cultured at the […].
By a mechanism not yet elucidated (25), TOR stimulates the production of brassinosteroids (BR), which are plant steroids that regulate growth, including many growth and development functions of ovules (25). By dephosphorylation, BR activates BRASSINAZOLE-RESISTANT 1 (BZR1), which is a major BR-regulated transcription factor that targets ca. 2000 genes. Thus, to determine if BR functions downstream of TOR in the apomeiosis meiosis switch, we treated sets of B. cf. gunnisoniana pistils with the BR biosynthesis inhibitor brassinozole (BRZ). Pistils were collected during the 2-III and 2-IV stages.
To determine if apomixis to sex switching by H2O2 involves pathways independent of BR, we compared three treatments to controls, BRZ alone (1.0 μmol), H2O2 alone (500 μmol), and BRZ and H2O2 combined (FIG. 37).

[2] = test system: Arabidopsis ovules; experiment: Pistil culture experiments with 5-azaC, BR (epiBL), DTBA, H2O2 and sugars, meiosis to apomeiosis; assay type: cell-based, Arabidopsis thaliana
From the text: (§1) To address redox instability, pistils were exposed to the antioxidant DTBA, an antioxidant that protects thiol groups in proteins from oxidization. To address bioenergetic stress, pistils were exposed to sugars. Glucose signaling is one of the most ancient and central signaling pathways in animals and plants and is involved in gene expression, primary and secondary metabolism, and regulation of growth and development (98). In Arabidopsis, rates of glycolysis and mitochondrial bioenergetics are sensed by TOR, which then control root meristem activation (18). If sufficient sugar is supplied, TOR should be activated. Active TOR protects BZR1 and other important BR-regulated enzymes from degradation, and this leads to plant growth (25). Factorial experiments were designed to test the effects of sucrose, glucose, epiBL, DTBA and 5-azaC on apomixis induction. These were designed for each of three sexual species, B. stricta, arabidopsis and cowpea. The experiments were performed and ratios of apomeiosis to meiosis were documented.
Two factorial experiments were conducted using immature arabidopsis pistils. In the first experiment, no 5-azaC, 5-azaC in the pretreatment only, or 5-azaC in both the pretreatment and the tissue culture medium were tested.
Cytological Analyses. Arabidopsis, Drummond's rockcress and cowpea floral buds were fixed in FAA (v/v: 3.7% formaldehyde, 5% acetic acid, 50% ethanol) for 48 h and cleared in 2:1 benzyl benzoate dibutyl phthalate (BBDP) (80): 1) 70% EtOH, 30 min; 95% EtOH, ≥4 h (2×); 95% EtOH:BBDP (2:1), 2 h; 95% EtOH:BBDP (1:2), 4 h; BBDP, 4 h; BBDP, overnight. Cleared pistils were mounted (up to 16 per slide) and measured from the pedicel base to the top of the stigma. Ovule development stages were studied using a BX53 microscope equipped with differential interference contrast optics and a MicroFire 599809 camera (Olympus, Center Valley, Pa., USA). For chromosome staining, pistils were soaked in 95% ethanol that contained 0.1 mg L^−1 4′,6-diamidino-2-phenylindole (DAPI). Callose was stained by soaking DAPI stained pistils in aqueous aniline blue (Millipore Sigma, Darmstadt, Germany) (124). DAPI fluorescence was detected with a Zeiss LSM 510 confocal microscope with excitation at 408 nm, dichroic reflector at HFT488 nm and detection at 450-650 nm. Callose was distinguished from DAPI by detection at 550-650 nm.
Presence of the following ovule characteristics were recorded: MMCs, Antennaria type diplosporous 1-2 nucleate ES, sexual or Taraxacum type diplosporous dyads, sexual tetrads, sexual or Taraxacum type diplosporous 1-2 nucleate ES, AI and AES. Developmental stages for the majority of ovules per pistil were recorded, and pistil lengths for the following stages (125) were recorded: 1-II, ovule meristems protruding from placentae (precedes MMC formation); 2-IV, meiosis; 3-III, vacuole in immature ES beginning to appear; 4-VI, nuclear divisions in endosperm underway. To determine average timing of meiosis onset, pistils primarily containing premeiotic (2-III) ovules were located under low light conditions 1 h before the lights came on in the morning. Corresponding sepals were marked with a small point permanent marker. Pistils were then randomly harvested for analysis when the lights came on and 3 h thereafter.
Pistils were aseptically excised, but not disinfested, at the early pre-MMC to MMC stages and incubated in vitro. The basal culture medium for arabidopsis and Drummond's rockcress was MS (126) (Caisson Laboratories, Inc., Smithfield, UT USA) with 20 g L^−1 sucrose or glucose and solidified with 1.45 g L^−1 Phytogel (MilliporeSigma).

[3] = test system: apomictic Boechera pistils; conditions: H2O2 applications shortly before apomeiosis; cited from earlier work
[4] = test system: B. lignifera ovules; conditions: 50 and/or 100 mmol L−1 H2O2, 5 min pretreatment of pistils
From the text: (§2) Ovules were scored based on germline development. The following conditions were quantified: i) pre-meiotic megaspore mother cell (MMC), ii) meiotic or diplosporous dyad, iii) sexual tetrad of megaspores, iv) enlarged functional megaspore (FM) with three degenerating megaspores (sexually derived), v) early-stage 1 or 2-nucleate embryo sac with three degenerating megaspore remnants visible, vi) enlarged functional megaspore (FM) with only one degenerating megaspore (derived by Taraxacum-type diplospory), vii) early-stage 1 or 2-nucleate embryo sac with only one degenerating megaspore remnant (derived by Taraxacum-type diplospory), viii) early-stage 1 or 2-nucleate embryo sac with no degenerating megaspores present (derived by Antennaria-type diplospory), ix) presence of one or more enlarged non-vacuolate nucellar cells (aposporous initial, AI) that equal or surpass the size of the meiocyte (meiotically active MMC, dyad or early-stage tetrad), x) enlarged nucellar cell with one or more distinct vacuoles and 1-2 nuclei (early-stage aposporous embryo sac, AES). Because of increased uncertainties, the origins of embryo sacs (sexual, diplosporous or aposporous) were not reported beyond the 2-nucleate stage. Pistil length and the developmental stage of the majority of scorable ovules in the pistil were recorded for each pistil.
(§3) To study the effects of short-term drought on converting apomictic development to sexual development, pistils of apomictic B. retrofracta×stricta, B. cf. gunnisoniana and B. lignifera were excised and cultured at pre-apomeiotic stages of ovule development.
(§4) TARGET OF RAPAMYCIN (TOR) is a major regulator of cell energetics that is highly-conserved among eukaryotes. This serine/threonine protein kinase activates or inactivates enzymes by its serine-threonine phosphorylation function(18). As a regulator of bioenergetics, TOR is inactivated by ROS, and its inactivation suppresses growth.

[5] = test system: B. cf. gunnisoniana ovules
From the text: as §2, §3, §4

[6] = test system: B. retrofracta×stricta ovules; conditions: 50 and/or 100 mmol L−1 H2O2, 5 min pretreatment of pistils
From the text: as §2, §3, §4

[7] = test system: cowpea (Vigna unguiculata) ovules; experiment: Pistil culture with epiBL, DTBA, epiBL plus DTBA and 5-azaC; assay type: cell-based; conditions: compound in pretreatment and culture medium; 24 of 34 ovules in total
From the text: as §1, with “These were designed for each of three sexual species, B. stricta, arabidopsis and cowpea. The experiments were performed and ratios of apomeiosis to meiosis were documented.” left out
Cytological Analyses. […] Cleared pistils were mounted (up to 16 per slide) and measured from the pedicel base to the top of the stigma. […] DAPI fluorescence was detected with a Zeiss LSM 510 confocal microscope with excitation at 408 nm, dichroic reflector at HFT488 nm and detection at 450-650 nm. […]
Presence of the following ovule characteristics were recorded: MMCs, Antennaria type diplosporous 1-2 nucleate ES, sexual or Taraxacum type diplosporous dyads, sexual tetrads, sexual or Taraxacum type diplosporous 1-2 nucleate ES, AI and AES. […]

[8] = test system: B. stricta (Drummond's rockcress) ovules; experiment: Pistil culture factorial experiment with sucrose, glucose, epiBL, DTBA and 5-azaC; assay type: cell-based, Boechera stricta
From the text: as §1
Both the carbohydrate variable and the other components variable were highly significant (P<0.001). Additionally, three ovules from the sucrose plus epiBL treatment (epiBL in the pretreatment and in the medium) had formed aposporous embryo sacs (AES). Also, two ovules, one from the sucrose-epiBL-epiBL treatment and one from the glucose-DTBA-DTBA treatment, had formed Antennaria-type diplosporous embryo sacs (FIGS. 48A-48H).
Cytological Analyses. Arabidopsis, Drummond's rockcress and cowpea floral buds were fixed in FAA (v/v: 3.7% formaldehyde, 5% acetic acid, 50% ethanol) for 48 h and cleared in 2:1 benzyl benzoate dibutyl phthalate (BBDP) (80): 1) 70% EtOH, 30 min; 95% EtOH, ≥4 h (2×); 95% EtOH:BBDP (2:1), 2 h; 95% EtOH:BBDP (1:2), 4 h; BBDP, 4 h; BBDP, overnight. Cleared pistils were mounted (up to 16 per slide) and measured from the pedicel base to the top of the stigma. […] DAPI fluorescence was detected with a Zeiss LSM 510 confocal microscope with excitation at 408 nm, dichroic reflector at HFT488 nm and detection at 450-650 nm. […]
Presence of the following ovule characteristics were recorded: MMCs, Antennaria type diplosporous 1-2 nucleate ES, sexual or Taraxacum type diplosporous dyads, sexual tetrads, sexual or Taraxacum type diplosporous 1-2 nucleate ES, AI and AES. Developmental stages for the majority of ovules per pistil were recorded, and pistil lengths for the following stages (125) were recorded: 1-II, ovule meristems protruding from placentae (precedes MMC formation); 2-IV, meiosis; 3-III, vacuole in immature ES beginning to appear; 4-VI, nuclear divisions in endosperm underway. […]

[9] = test system: Arabidopsis embryo sacs; experiment: Induction of parthenogenesis and autonomous endosperm formation in pistils; assay type: cell-based; conditions: 0.1 μM DTBA on 2% glucose medium for 7 d
Procedure: Scale bars: 50 μm (FIG. 51A), 20 μm (FIGS. 51B-51E).
FIG. 52 Parthenogenesis in putatively diploid Arabidopsis embryo sacs induced by treatment of pistils in emasculated flowers with 2 μM BR or 50 mM glucose. To prevent fertilization, stigmas of pistils were clipped while anthers were immature. These pistils were also treated premeiotically with BR and glucose.
Functional apomixis requires not only apomeiosis but also parthenogenesis and, in plants, endosperm formation.

[10] = test system: B. cf. gunnisoniana ovules; conditions: pre-MMC staged pistils demethylated with 5-azaC; cited from earlier work
[11] = test system: B. cf. gunnisoniana ovules; experiment: 5-azaC pre-culture soak and pistil culture, Taraxacum-type to Antennaria-type diplospory; assay type: cell-based; conditions: 500 μmol L−1 5-azaC (highest concentration)
Procedure: FIG. 38 Frequencies of triploid B. cf. gunnisoniana ovules that were initiating Taraxacum-type diplospory, Polygonum-type sexual development, Antennaria-type diplospory, or Hieracium-type apospory at the end of pistil culture treatment as affected by a 5 min pre-culture soak in solutions containing 5-azacytidine (5-azaC). Pistils were initiated in culture at the 1-I stage. Numbers of ovules per level of 5-azaC averaged 487 and ranged from 288-590.
FIGS. 39A-39C Ovules from pistils of B. gunnisoniana treated at the pre-MMC stage with 5-azaC as a pretreatment solution and then cultured on 5-azaC-containing tissue culture media for 48 h. (FIGS. 39A, 39B) Antennaria-type (A-type) MMC vacuolation. (FIG. 39C) 2-nucleate A-type embryo sac arising directly from an MMC. scale bar: 20 μm.
Thus, if methylation in sexual plants can be prevented, or if DNA can be demethylated, the apomictic pathway might surface as the default pathway. 5-azaC, an inhibitor of DNA-cytosine methyltransferases, produces upon DNA replication hypomethylated DNA. It is a chemical analogue of cytosine that is incorporated into DNA by competition with cytosine during DNA synthesis. In 5-azaC, the carbon-5 of the cytosine ring, which is essential to DNA methyltransferase function, is replaced by nitrogen, and this causes failure of methylation at each 5-azaC site(99). […]

[12] = 7 min pretreatment in dilute H2O2
[13] = early MMC staged pistils soaked in DTBA 60 min, cultured on DTBA medium 4 d

Structure (SMILES): OO [H2O2, hydrogen peroxide]
- shift from apomeiosis (dyad formation) to meiosis (tetrad formation) vs controls [1]: highly significant (p<0.001) shift from apomeiosis (dyad formation) to meiosis (tetrad formation)
- Taraxacum-type diplosporous ES formation [2, 12]: absent
- ovules with surviving megaspores replaced by AES [2, 12]: 13%
- shift from apomeiosis to meiosis [3]: high frequency shifts from Taraxacum-type diplosporous apomeiosis to normal meiosis
- switch from apomeiosis to meiosis [4]: effectively switched apomeiosis to meiosis
- switch from apomeiosis to meiosis ([5]; 50 and/or 100 mmol L−1 H2O2, 5 min pretreatment of pistils): effectively switched apomeiosis to meiosis
- replacement of surviving megaspores of tetrads by aposporous embryo sacs (apospory), ovules ([5]; H2O2 treatments): 30%
- switch from apomeiosis to meiosis [6]: effectively switched apomeiosis to meiosis

Structure (SMILES): Cl.N[C@H](CS)CCS [DTBA, (S)-2-aminobutane-1,4-dithiol hydrochloride]
- number of ovules that initiated Antennaria-type diplospory [7]: 8 ovules
- ovules with 1st division meiotic restitution (Taraxacum-type diplosporous apomeiosis) [2, 13]: 40%
- ovules with megaspores displaced by one or more AES [2, 13]: 18%
- number of ovules that formed Antennaria-type diplosporous embryo sacs ([8]; glucose-DTBA-DTBA treatment): one
- parthenogenetic embryo formation [9]: Parthenogenetic embryos

Structure (SMILES): OC[C@H]1O[C@@](CO)(O[C@H]2O[C@H](CO)[C@@H](O)[C@H](O)[C@H]2O)[C@@H](O)[C@@H]1O [sucrose]
- meiosis termination followed by Taraxacum and Hieracium type ES formation ([8]; glucose instead of sucrose in medium): 26 of 164

Structure (SMILES): Nc1ncn([C@@H]2O[C@H](CO)[C@@H](O)[C@H]2O)c(=O)n1 [5-azaC, 5-azacytidine]
- number of ovules that initiated Antennaria-type diplospory [7]: Nine
- ovules switched from Taraxacum-type to Antennaria-type diplospory [10]: 10%
- Antennaria type diplospory ([2]; 5-azaC soak, then 5-azaC or BR medium (5/5, 5/B)): occurred in some ovules
- ovules with meiosis replaced by Antennaria-type diplosporous embryo sac formation ([2]; first factorial experiment, 5-azaC in pretreatment and tissue culture media): 6%
- onset of aposporous embryo sac formation ([2]; first factorial experiment, 5-azaC in pretreatment only or pretreatment and medium): effectively induced onset of aposporous embryo sac formation from nucellar cells
- treated ovules that developed apomeiotically ([2]; pre-MMC pistils soaked in 5-azaC 60 min, cultured on control medium or media with 5-azaC, BR, or 5-azaC plus BR and DTBA): Greater than 90%
- ovules with Antennaria-type diplospory ([2]; second factorial experiment, 5-azaC as pretreatment and in culture medium): 26%
- ovules that initiated apomixis (AES, Taraxacum-type and Antennaria-type diplospory) ([2]; second factorial experiment, 5-azaC-treated): 90%
- ovules with induced Antennaria-type diplospory [11]: 10%

Structure (SMILES): CC(O)(c1ccccc1)C(Cc1ccc(Cl)cc1)n1cncn1 (stereo not shown) [BRZ, brassinazole]
- shift from apomeiosis (dyad formation) to meiosis (tetrad formation) vs controls [1]: highly significant (p<0.001) shift from apomeiosis (dyad formation) to meiosis (tetrad formation)
- shift of reproductive mode by BR synthesis inhibition ([1]; pistils cultured at the 2-IV stage): significant shift (P<0.05) from apomeiosis to meiosis and from apoptosis to apospory
